Laboratory results taken from patent US20240376100A1 (Redona Therapeutics, Inc., priority 2021, published 2024).
Where a name gives a salt, the structure may show the parent alone.

The compounds below were run against PAPD5 enzyme (Homo sapiens, UniProt Q8NDF8) (assay: PAPD5 assay (AMP incorporation onto 3'-terminus of RNA substrate, fluorescence quench)). Conditions: PAPD5 protein 0.3 nM, ATP 50 μM, 30 minutes preincubation, room temperature; read-out: Potency PAPD5 IC50.
Type: biochemical
Procedure: The purpose of the PAPD5 assay is to determine compound potency against PAPD5 enzyme through the measurement of IC50. Compound inhibition is measured as a function of AMP incorporation onto the 3′-terminus of an RNA substrate in the presence of active PAPD5, ATP, and inhibitor. The PAPD5 assay was done in a black, non-binding, 384 well plate (Corning #3575). All steps were performed at room temperature. For a typical assay, a 40 ul aliquot of assay buffer (50 mM HEPES pH 7.3, 20 mM KCl, 10 mM MgCl2, 10 mMM DTT, 0.01% Triton X-100, 40 U/ml RNAsin (Promega)) containing PAPD5 protein (final 10 concentration: 0.3 nM) and ATP (final concentration 50 μM) was added to each well. Next, 1 ul of compound in 100% DMSO is transferred from a compound dilution plate in which the compound is serially diluted. The plate was placed on a plate shaker for 30 seconds to produce mixing, then incubated for 30 minutes. Next, 10 ul of a 5× mix of RNA substrate (5′-fluorescein-AUAGAG-3′ (IDT)) and a DNA oligonucleotide that is complementary to the AMP modified RNA product (5′-TCTCTATT-3′-TAMRA, wherein the first two nucleotides are locked nucleic acids (IDT)) was added (final concentrations: 5 nM and 20 nM, respectively). The plate was placed on a plate shaker for 30 seconds to produce mixing then immediately placed in a Biotek Cytation 5 plate reader, and the time-dependent decrease in fluorescein fluorescence resulting from annealing of the TAMRA labeled quenching probe was recorded, using the kinetics mode of the reader (typical run time is 90 minutes). Reaction rates were obtained using linear fits to the early portion of progress curves. IC50 values were calculated using a four-parameter fit with 100% enzyme activity determined from the DMSO control and 0% activity from control samples lacking UTP.
“+” represents an IC50 value that is greater than 50 PM; “++” represents an IC50 value that is greater than 10 μM and equal to or less than 50 μM; “+++” represents an IC50 value that is greater than 1 μM and equal to or less than 10 μM; and “++++” represents an IC50 value that is equal to or less than 1 μM.

Chain of PAPD5 enzyme (Q8NDF8 whole entry): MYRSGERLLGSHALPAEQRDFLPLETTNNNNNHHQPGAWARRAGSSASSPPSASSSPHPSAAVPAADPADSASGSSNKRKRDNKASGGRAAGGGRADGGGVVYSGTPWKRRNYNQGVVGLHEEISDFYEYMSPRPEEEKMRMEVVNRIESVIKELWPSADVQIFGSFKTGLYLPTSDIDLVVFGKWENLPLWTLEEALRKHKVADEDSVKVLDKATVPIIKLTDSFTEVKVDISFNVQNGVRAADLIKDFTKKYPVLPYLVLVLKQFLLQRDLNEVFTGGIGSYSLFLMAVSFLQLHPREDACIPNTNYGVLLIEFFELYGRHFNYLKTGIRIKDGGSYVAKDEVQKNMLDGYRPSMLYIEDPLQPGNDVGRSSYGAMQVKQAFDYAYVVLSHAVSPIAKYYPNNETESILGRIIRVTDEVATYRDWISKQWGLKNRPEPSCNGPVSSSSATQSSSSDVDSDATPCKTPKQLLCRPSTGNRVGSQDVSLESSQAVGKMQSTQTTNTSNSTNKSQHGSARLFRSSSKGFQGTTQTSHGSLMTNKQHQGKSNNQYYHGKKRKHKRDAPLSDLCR

IC50 | Structure (SMILES)
≤ 1000 nM | O=C(O)c1cn(CC2CCC2)c2cc(N3Cc4cccnc4C3)c(Cl)cc2c1=O [Example 33, 6-chloro-1-(cyclobutylmethyl)-7-(5,7-dihydro-6H-pyrrolo[3,4-b]pyridin-6-yl)-4-oxo-1,4-dihydroquinoline-3-carboxylic acid]
≤ 1000 nM | CC(C)Cn1cc(C(=O)O)c(=O)c2cc(Cl)c(N3Cc4cccnc4C3)nc21 [Example 34, 6-chloro-7-(5,7-dihydro-6H-pyrrolo[3,4-b]pyridin-6-yl)-1-isobutyl-4-oxo-1,4-dihydro-1,8-naphthyridine-3-carboxylic acid]
≤ 1000 nM | CN(C)C1CN(c2ccc(-n3cc(C(=O)O)c(=O)c4cc(C#N)c(N5Cc6cccnc6C5)cc43)cn2)C1 [Example 36, 6-cyano-7-(5,7-dihydro-6H-pyrrolo[3,4-b]pyridin-6-yl)-1-(6-(3-(dimethylamino)azetidin-1-yl)pyridin-3-yl)-4-oxo-1,4-dihydroquinoline-3-carboxylic acid]
≤ 1000 nM | N#Cc1cc2c(=O)c(C(=O)O)cn(-c3ccc(O)c(F)c3)c2cc1N1Cc2cccnc2C1 [Example 37, 6-cyano-7-(5,7-dihydro-6H-pyrrolo[3,4-b]pyridin-6-yl)-1-(3-fluoro-4-hydroxyphenyl)-4-oxo-1,4-dihydroquinoline-3-carboxylic acid]
≤ 1000 nM | N#Cc1cc2c(=O)c(C(=O)O)cn(-c3ccc(O)cc3F)c2cc1N1Cc2cccnc2C1 [Example 38, 6-cyano-7-(5,7-dihydro-6H-pyrrolo[3,4-b]pyridin-6-yl)-1-(2-fluoro-4-hydroxyphenyl)-4-oxo-1,4-dihydroquinoline-3-carboxylic acid]
≤ 1000 nM | COc1ccc(-c2ccn(-c3cc4c(cc3F)c(=O)c(C(=O)O)cn4-c3ccc(O)cc3F)n2)cc1 [Example 39, 6-fluoro-1-(2-fluoro-4-hydroxyphenyl)-7-(3-(4-methoxyphenyl)-1H-pyrazol-1-yl)-4-oxo-1,4-dihydroquinoline-3-carboxylic acid]
≤ 1000 nM | O=C(O)c1cn(Cc2ccccc2)c2nc(N3Cc4cccnc4C3)c(Cl)cc2c1=O [Example 40, 1-benzyl-6-chloro-7-(5,7-dihydro-6H-pyrrolo[3,4-b]pyridin-6-yl)-4-oxo-1,4-dihydro-1,8-naphthyridine-3-carboxylic acid]
≤ 1000 nM | COc1ccccc1Cn1cc(C(=O)O)c(=O)c2cc(Cl)c(N3Cc4cccnc4C3)nc21 [Example 41, 6-chloro-7-(5,7-dihydro-6H-pyrrolo[3,4-b]pyridin-6-yl)-1-(2-methoxybenzyl)-4-oxo-1,4-dihydro-1,8-naphthyridine-3-carboxylic acid]
≤ 1000 nM | COc1cccc(Cn2cc(C(=O)O)c(=O)c3cc(Cl)c(N4Cc5cccnc5C4)nc32)c1 [Example 42, 6-chloro-7-(5,7-dihydro-6H-pyrrolo[3,4-b]pyridin-6-yl)-1-(3-methoxybenzyl)-4-oxo-1,4-dihydro-1,8-naphthyridine-3-carboxylic acid]
≤ 1000 nM | CC(c1ccccc1)n1cc(C(=O)O)c(=O)c2cc(Cl)c(N3Cc4cccnc4C3)nc21 (centres unmarked) [Example 43, 6-chloro-7-(5,7-dihydro-6H-pyrrolo[3,4-b]pyridin-6-yl)-4-oxo-1-(1-phenylethyl)-1,4-dihydro-1,8-naphthyridine-3-carboxylic acid]
≤ 1000 nM | COc1ccc(Cn2cc(C(=O)O)c(=O)c3cc(Cl)c(N4Cc5cccnc5C4)nc32)cc1 [Example 44, 6-chloro-7-(5,7-dihydro-6H-pyrrolo[3,4-b]pyridin-6-yl)-1-(4-methoxybenzyl)-4-oxo-1,4-dihydro-1,8-naphthyridine-3-carboxylic acid]
≤ 1000 nM | N#Cc1cc2c(=O)c(C(=O)O)cn(-c3cnccn3)c2nc1N1Cc2cccnc2C1 [Example 45, 6-cyano-7-(5,7-dihydro-6H-pyrrolo[3,4-b]pyridin-6-yl)-4-oxo-1-(pyrazin-2-yl)-1,4-dihydro-1,8-naphthyridine-3-carboxylic acid]
≤ 1000 nM | N#Cc1cc2c(=O)c(C(=O)O)cn(-c3cnccn3)c2cc1N1Cc2cccnc2C1 [Example 47, 6-cyano-7-(5,7-dihydro-6H-pyrrolo[3,4-b]pyridin-6-yl)-4-oxo-1-(pyrazin-2-yl)-1,4-dihydroquinoline-3-carboxylic acid]
≤ 1000 nM | N#Cc1cc2c(=O)c(C(=O)O)cn(-c3ccc(N)nc3)c2cc1N1Cc2cccnc2C1 [Example 48, 1-(6-aminopyridin-3-yl)-6-cyano-7-(5,7-dihydro-6H-pyrrolo[3,4-b]pyridin-6-yl)-4-oxo-1,4-dihydroquinoline-3-carboxylic acid]
≤ 1000 nM | N#Cc1cc2c(=O)c(C(=O)O)cn(-c3ccc(N4CCC4)nc3)c2cc1N1Cc2cccnc2C1 [Example 49, 1-(6-(azetidin-1-yl)pyridin-3-yl)-6-cyano-7-(5,7-dihydro-6H-pyrrolo-[3,4-b]pyridin-6-yl)-4-oxo-1,4-dihydroquinoline-3-carboxylic acid]
≤ 1000 nM | COCCNc1ccc(-n2cc(C(=O)O)c(=O)c3cc(C#N)c(N4Cc5cccnc5C4)cc32)cn1 [Example 50, 6-cyano-7-(5,7-dihydro-6H-pyrrolo[3,4-b]pyridin-6-yl)-1-(6-((2-methoxyethyl)amino)pyridin-3-yl)-4-oxo-1,4-dihydroquinoline-3-carboxylic acid]
≤ 1000 nM | Nc1ccc(-n2cc(C(=O)O)c(=O)c3cc(Cl)c(N4Cc5cccnc5C4)nc32)cn1 [Example 51, 1-(6-aminopyridin-3-yl)-6-chloro-7-(5,7-dihydro-6H-pyrrolo[3,4-b]pyridin-6-yl)-4-oxo-1,4-dihydro-1,8-naphthyridine-3-carboxylic acid]
≤ 1000 nM | Nc1ccc(-n2cc(C(=O)O)c(=O)c3cc(Cl)c(N4Cc5cccnc5C4)cc32)cn1 [Example 52, 1-(6-aminopyridin-3-yl)-6-chloro-7-(5,7-dihydro-6H-pyrrolo[3,4-b]pyridin-6-yl)-4-oxo-1,4-dihydroquinoline-3-carboxylic acid]
≤ 1000 nM | N#Cc1cc2c(=O)c(C(=O)O)cn(-c3cccnc3)c2cc1N1Cc2cccc(F)c2C1 [Example 53, 6-cyano-7-(4-fluoroisoindolin-2-yl)-4-oxo-1-(pyridin-3-yl)-1,4-dihydroquinoline-3-carboxylic acid]
≤ 1000 nM | COc1cnc(-n2cc(C(=O)O)c(=O)c3cc(C#N)c(N4Cc5cccnc5C4)cc32)cn1 [Example 54, 6-cyano-7-(5,7-dihydro-6H-pyrrolo[3,4-b]pyridin-6-yl)-1-(5-methoxypyrazin-2-yl)-4-oxo-1,4-dihydro quinoline-3-carboxylic acid]
≤ 1000 nM | COc1ccc(-n2cc(C(=O)O)c(=O)c3cc(C#N)c(N4Cc5cccnc5C4)cc32)cn1 [Example 55, 6-cyano-7-(5,7-dihydro-6H-pyrrolo[3,4-b]pyridin-6-yl)-1-(6-methoxypyridin-3-yl)-4-oxo-1,4-dihydroquinoline-3-carboxylic acid]
≤ 1000 nM | N#Cc1cc2c(=O)c(C(=O)O)cn(-c3ccc(O)nc3)c2cc1N1Cc2cccnc2C1 [Example 56, 6-cyano-7-(5,7-dihydro-6H-pyrrolo[3,4-b]pyridin-6-yl)-1-(6-hydroxypyridin-3-yl)-4-oxo-1,4-dihydroquinoline-3-carboxylic acid]
≤ 1000 nM | CS(=O)(=O)Nc1ccc(-n2cc(C(=O)O)c(=O)c3cc(C#N)c(N4Cc5cccnc5C4)cc32)c(F)c1 [Example 57, 6-cyano-7-(5,7-dihydro-6H-pyrrolo[3,4-b]pyridin-6-yl)-1-(2-fluoro-4-(methylsulfonamido)phenyl)-4-oxo-1,4-dihydroquinoline-3-carboxylic acid]
≤ 1000 nM | COCCOc1ccc(-n2cc(C(=O)O)c(=O)c3cc(C#N)c(N4Cc5cccnc5C4)cc32)cn1 [Example 58, 6-cyano-7-(5,7-dihydro-6H-pyrrolo[3,4-b]pyridin-6-yl)-1-(6-(2-methoxyethoxy)pyridin-3-yl)-4-oxo-1,4-dihydroquinoline-3-carboxylic acid]
≤ 1000 nM | CN(C)CCOc1ccc(-n2cc(C(=O)O)c(=O)c3cc(C#N)c(N4Cc5cccnc5C4)cc32)cn1 [Example 59, 6-cyano-7-(5,7-dihydro-6H-pyrrolo[3,4-b]pyridin-6-yl)-1-(6-(2-(dimethylamino)ethoxy)pyridin-3-yl)-4-oxo-1,4-dihydroquinoline-3-carboxylic acid hydrochloride]

Structure (SMILES) | IC50
Cc1nc(NC(=O)OC(C)(C)C)ccc1-n1cc(C(=O)O)c(=O)c2cc(Cl)c(N3Cc4cccnc4C3)cc21 [Example 46, 1-(6-((tert-butoxycarbonyl)amino)-2-methylpyridin-3-yl)-6-chloro-7-(5,7-dihydro-6H-pyrrolo[3,4-b]pyridin-6-yl)-4-oxo-1,4-dihydroquinoline-3-carboxylic acid] | ≤ 1000 nM
